Experimental data from patent publication US20250145606A1 (Arcus Biosciences, Inc., priority 2023, published 2025).

Legend:
Conditions in all cases: biochemical, HTRF KinEASE-TK
c-Kit = c-Kit (Homo sapiens (Human), UniProt P10721); assay: Inhibition of c-Kit kinase activity (HTRF KinEASE-TK); type: biochemical
Method: (§1) Inhibition of c-Kit, PDGFRα, PDGFRβ, CSFIR and FLT3 Kinase Activity
(§2) Compounds were evaluated to determine the potency with which they inhibit the kinase activity of the following panel of tyrosine kinases: c-Kit (SignalChem, Product #: K06-11BG), PDGFRα (SignalChem, Product #: P12-18G), PDGFRβ (SignalChem, Product #: P13-11G), CSFIR (SignalChem, Product #: C74-11G) and FLT3 (Invitrogen, Product #: PR4666C). Activity was determined as a function of phosphorylated biotinylated TK peptide generated by the transfer of phosphate from ATP as measured by the use of the HTRF KinEASE-TK assay kit (Cisbio, Product #: 62TKOPEJ). Levels of phosphorylated biotinylated TK peptide (Part 61TKOBLC of KinEASE assay kit) are quantified by its capture by phosphor-TK-Antibody-Cryptate (Part of KinEASE assay kit) and XL665-labeled Streptavidin (Part 610SAXLG of KinEASE assay kit) followed by measurement of Time-Resolved Fluorescence Resonance Energy Transfer (TR-FRET) signal. On the day of the assay, compounds were solubilized in DMSO and dispensed into a 384-well white Opti-plate (PerkinElmer, catalog #6007290) to generate a 22 point 1:2 titration. Enzyme solution was prepared for each of the tyrosine kinases in 50 mM HEPES, pH 7.4, 5 mM MgCl2 for c-Kit or 10 mM MgCl2 for FLT3, CSFIR, PDGFRa and PDGFRβ, 2 mM MnCl2, 0.01% Brij-35 and 0.01% BSA. Working enzyme concentrations were prepared for c-Kit at 2 nM (2×), PDGFRa and PDGFRß at 10 nM (2×), CSFIR at 2 nM (2×) and FLT3 at 0.4 nM (2×). Five microliters of enzyme dilution of each tyrosine kinase were added to their respective 384-well white Opti-plate pre-dispensed with compound and allowed to incubate for 1 h at rt. Utilizing the same enzyme buffer recipe, 2x substrate mixes were prepared for each enzyme as follows: For c-Kit, 1.6 μM (2×) TK substrate and 16 μM (2×) ATP (Promega, catalog #V915). For PDGFRα, 3.2 μM TK substrate and 1 μM ATP. For PDGFRβ, 3.2 μM TK substrate and 40 μM ATP. For CSFIR, […] TK substrate and 20 μM ATP. For FLT3, 3.2 μM TK substrate and 100 μM ATP. Reactions were initiated by addition of 5 μL of the respective 2x substrate mix to each well of the plates containing the respective tyrosine kinase enzymes and were allowed to proceed for 120 minutes at rt, except for FLT3, the reaction time is 45 min. Following the reaction, 10 μL of detection mix consisting of 0.2 μM (2×) of Streptavidin-XL665 and 2 μM (2×) of TK-Antibody-Cryptate prepared in detection buffer (Part 62SDBRDF of KinEASE assay kit) was added and then allowed to incubate for 60 min. The TR-FRET signal was quantified by measuring the ratio of emission at 665 nm to 620 nm after excitation at 320 nm by reading on a PerkinElmer Envision multimode reader. Compound potencies (IC50 values) were determined using a standard 4-parameter non-linear regression fit.

PDGFRβ = PDGFRβ (Homo sapiens (Human), UniProt P09619); assay: Inhibition of PDGFRβ kinase activity (HTRF KinEASE-TK)
PDGFRβ, sequence (P09619 33-1106): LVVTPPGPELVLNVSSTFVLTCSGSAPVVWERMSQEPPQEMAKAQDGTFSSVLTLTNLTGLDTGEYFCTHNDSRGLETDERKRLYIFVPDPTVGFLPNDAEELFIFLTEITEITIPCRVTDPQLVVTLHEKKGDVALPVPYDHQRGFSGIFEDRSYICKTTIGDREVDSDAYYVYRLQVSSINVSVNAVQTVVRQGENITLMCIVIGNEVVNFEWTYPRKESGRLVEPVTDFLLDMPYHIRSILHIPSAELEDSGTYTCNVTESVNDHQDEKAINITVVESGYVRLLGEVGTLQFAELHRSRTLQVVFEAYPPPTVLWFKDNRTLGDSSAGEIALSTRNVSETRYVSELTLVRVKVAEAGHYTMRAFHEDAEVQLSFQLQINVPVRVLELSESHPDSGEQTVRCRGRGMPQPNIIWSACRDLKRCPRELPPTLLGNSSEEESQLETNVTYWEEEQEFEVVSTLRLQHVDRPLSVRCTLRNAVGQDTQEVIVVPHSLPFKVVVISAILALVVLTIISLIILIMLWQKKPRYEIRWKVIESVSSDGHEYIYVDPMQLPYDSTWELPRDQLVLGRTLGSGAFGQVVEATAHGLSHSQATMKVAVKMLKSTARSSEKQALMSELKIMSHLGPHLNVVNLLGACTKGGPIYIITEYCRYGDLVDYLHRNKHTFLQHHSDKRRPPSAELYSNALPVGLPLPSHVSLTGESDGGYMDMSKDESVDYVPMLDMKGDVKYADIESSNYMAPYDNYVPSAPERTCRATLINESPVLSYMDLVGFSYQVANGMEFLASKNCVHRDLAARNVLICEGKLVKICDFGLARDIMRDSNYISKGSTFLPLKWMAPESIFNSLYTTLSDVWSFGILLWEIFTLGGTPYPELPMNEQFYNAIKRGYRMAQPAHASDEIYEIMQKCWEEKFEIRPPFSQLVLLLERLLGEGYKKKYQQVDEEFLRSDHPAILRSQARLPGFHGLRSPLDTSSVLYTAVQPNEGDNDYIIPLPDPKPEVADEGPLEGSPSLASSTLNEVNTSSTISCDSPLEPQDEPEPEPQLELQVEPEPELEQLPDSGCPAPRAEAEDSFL
Method: as §1, §2

CSF1R = CSF1R (Homo sapiens (Human), UniProt P07333); assay: Inhibition of CSF1R kinase activity (HTRF KinEASE-TK)
CSF1R, sequence (P07333 20-972): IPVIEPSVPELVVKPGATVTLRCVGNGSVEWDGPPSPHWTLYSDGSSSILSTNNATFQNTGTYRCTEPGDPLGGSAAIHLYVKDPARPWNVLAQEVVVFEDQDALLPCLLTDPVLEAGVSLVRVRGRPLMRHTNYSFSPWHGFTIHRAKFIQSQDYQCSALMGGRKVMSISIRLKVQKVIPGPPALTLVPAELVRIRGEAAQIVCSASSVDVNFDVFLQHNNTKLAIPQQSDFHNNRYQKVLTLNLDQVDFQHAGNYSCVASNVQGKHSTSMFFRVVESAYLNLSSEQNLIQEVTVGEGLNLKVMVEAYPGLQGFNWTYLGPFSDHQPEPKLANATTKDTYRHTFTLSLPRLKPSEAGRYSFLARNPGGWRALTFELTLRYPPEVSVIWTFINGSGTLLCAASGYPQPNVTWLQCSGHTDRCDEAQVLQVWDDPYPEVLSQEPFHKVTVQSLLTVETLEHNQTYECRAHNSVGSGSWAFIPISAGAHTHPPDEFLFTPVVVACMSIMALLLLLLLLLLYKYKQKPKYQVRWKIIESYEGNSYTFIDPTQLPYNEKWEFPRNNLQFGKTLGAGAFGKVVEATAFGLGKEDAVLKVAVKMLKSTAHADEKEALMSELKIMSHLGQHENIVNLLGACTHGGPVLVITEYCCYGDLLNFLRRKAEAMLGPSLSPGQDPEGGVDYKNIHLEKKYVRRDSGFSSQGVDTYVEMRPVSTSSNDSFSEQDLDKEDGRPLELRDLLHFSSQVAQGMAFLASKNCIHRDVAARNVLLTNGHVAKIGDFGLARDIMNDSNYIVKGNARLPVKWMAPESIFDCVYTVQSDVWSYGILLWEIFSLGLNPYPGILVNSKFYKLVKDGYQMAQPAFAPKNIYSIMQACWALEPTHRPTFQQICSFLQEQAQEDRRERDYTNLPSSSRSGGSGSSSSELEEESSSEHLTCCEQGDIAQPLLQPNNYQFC
Method: as §1, §2

PDGFRα = PDGFRα (Homo sapiens (Human), UniProt P16234); assay: Inhibition of PDGFRα kinase activity (HTRF KinEASE-TK)
PDGFRα, sequence (P16234 24-1089): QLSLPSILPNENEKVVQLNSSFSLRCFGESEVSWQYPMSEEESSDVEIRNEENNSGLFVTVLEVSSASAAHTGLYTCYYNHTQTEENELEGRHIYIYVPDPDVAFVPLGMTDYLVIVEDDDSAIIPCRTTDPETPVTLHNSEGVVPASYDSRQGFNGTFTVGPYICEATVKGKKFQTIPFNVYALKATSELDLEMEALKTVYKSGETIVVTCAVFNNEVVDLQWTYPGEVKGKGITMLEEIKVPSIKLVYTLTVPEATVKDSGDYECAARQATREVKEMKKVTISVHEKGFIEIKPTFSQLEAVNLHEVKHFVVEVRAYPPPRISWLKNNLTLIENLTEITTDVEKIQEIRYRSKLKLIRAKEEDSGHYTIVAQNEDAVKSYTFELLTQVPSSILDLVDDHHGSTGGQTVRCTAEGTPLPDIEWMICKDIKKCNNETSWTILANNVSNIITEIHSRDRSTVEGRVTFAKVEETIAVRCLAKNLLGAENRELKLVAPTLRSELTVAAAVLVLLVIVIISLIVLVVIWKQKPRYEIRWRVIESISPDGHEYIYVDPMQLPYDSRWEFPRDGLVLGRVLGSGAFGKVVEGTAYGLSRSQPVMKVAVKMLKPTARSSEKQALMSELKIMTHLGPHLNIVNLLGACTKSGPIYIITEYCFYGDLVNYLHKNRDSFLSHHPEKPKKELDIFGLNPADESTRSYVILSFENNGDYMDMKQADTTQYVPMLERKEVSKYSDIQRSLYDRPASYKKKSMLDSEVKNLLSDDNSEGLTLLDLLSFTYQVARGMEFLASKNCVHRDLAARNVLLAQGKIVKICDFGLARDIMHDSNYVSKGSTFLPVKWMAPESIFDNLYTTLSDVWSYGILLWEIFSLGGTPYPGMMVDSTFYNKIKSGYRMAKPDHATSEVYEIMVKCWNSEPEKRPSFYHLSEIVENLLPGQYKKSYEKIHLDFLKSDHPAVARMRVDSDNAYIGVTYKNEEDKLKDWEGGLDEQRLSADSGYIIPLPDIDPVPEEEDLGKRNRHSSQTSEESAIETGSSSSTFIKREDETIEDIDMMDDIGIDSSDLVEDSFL
Method: as §1, §2

c-Kit, sequence (P10721 26-976): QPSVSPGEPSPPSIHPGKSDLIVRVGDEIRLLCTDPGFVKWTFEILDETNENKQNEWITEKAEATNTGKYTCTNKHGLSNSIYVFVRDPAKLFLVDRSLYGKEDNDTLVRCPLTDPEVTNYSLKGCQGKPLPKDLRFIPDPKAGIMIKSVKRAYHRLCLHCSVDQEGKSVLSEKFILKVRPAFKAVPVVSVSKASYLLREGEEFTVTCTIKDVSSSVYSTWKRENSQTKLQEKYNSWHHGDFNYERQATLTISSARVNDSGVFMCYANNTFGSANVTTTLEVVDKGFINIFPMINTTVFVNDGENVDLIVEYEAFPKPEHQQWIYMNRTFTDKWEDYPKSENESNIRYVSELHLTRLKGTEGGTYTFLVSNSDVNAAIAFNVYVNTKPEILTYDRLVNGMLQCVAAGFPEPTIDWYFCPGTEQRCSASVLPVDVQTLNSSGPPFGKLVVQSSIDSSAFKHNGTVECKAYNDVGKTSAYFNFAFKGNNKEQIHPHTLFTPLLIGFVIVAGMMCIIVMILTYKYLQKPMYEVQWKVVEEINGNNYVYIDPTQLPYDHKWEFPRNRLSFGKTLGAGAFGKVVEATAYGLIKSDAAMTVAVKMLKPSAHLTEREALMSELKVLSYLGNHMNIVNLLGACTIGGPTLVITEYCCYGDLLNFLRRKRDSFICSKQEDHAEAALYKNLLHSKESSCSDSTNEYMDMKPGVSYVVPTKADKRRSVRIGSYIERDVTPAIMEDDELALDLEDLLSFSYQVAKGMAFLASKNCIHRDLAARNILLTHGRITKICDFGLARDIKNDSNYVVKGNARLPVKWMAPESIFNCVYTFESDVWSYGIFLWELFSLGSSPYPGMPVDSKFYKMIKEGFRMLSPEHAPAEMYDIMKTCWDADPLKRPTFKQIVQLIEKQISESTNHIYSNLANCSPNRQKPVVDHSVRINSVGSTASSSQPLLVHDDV

Structure (SMILES)	IC50 (c-Kit)	IC50 (PDGFRβ)	IC50 (CSF1R)	IC50 (PDGFRα)
Cc1cc(F)c(C(=O)Nc2cc3c(cn2)COC3)cc1NC(=O)c1cnc(N)s1 [Example 112, 2-Amino-N-[5-(1,3-dihydrofuro [3,4-c]pyridin-6-ylcarbamoyl)-4-fluoro-2-methylphenyl]-1,3-thiazole-5-carboxamide]	< 100 nM	100 to 1000 nM	100 to 1000 nM	> 1000 nM
Cc1cc(F)c(C(=O)Nc2ccc(C(C)(C)O)cn2)cc1NC(=O)c1cnc(N)s1 [Example 113, 2-Amino-N-[4-fluoro-5-[[5-(2-hydroxypropan-2-yl)pyridin-2-yl]carbamoyl]-2-methylphenyl]-1,3-thiazole-5-carboxamide]	< 100 nM	< 100 nM	100 to 1000 nM	100 to 1000 nM
Cc1cc(F)c(C(=O)Nc2ccc(S(C)(=O)=O)cn2)cc1NC(=O)c1cnc(N)s1 [Example 116, 2-Amino-N-[4-fluoro-2-methyl-5-[(5-methylsulfonylpyridin-2-yl)carbamoyl]phenyl]-1,3-thiazole-5-carboxamide]	< 100 nM	100 to 1000 nM	100 to 1000 nM	> 1000 nM
Cc1cc(F)c(C(=O)Nc2ccc(C3(C#N)CC3)nn2)cc1NC(=O)c1cnc(N)s1 [Example 119, 2-Amino-N-[5-[[6-(1-cyanocyclopropyl)pyridazin-3-yl]carbamoyl]-4-fluoro-2-methylphenyl]-1,3-thiazole-5-carboxamide]	< 100 nM	100 to 1000 nM	100 to 1000 nM	> 1000 nM
Cc1cc(F)c(C(=O)NC2CN(C(=O)C3CC3)C2)cc1NC(=O)c1cnc(N)s1 [Example 121, 2-Amino-N-[5-[[1-(cyclopropanecarbonyl)azetidin-3-yl]carbamoyl]-4-fluoro-2-methylphenyl]-1,3-thiazole-5-carboxamide]	< 100 nM	> 1000 nM	> 1000 nM	> 1000 nM
Cc1cc(F)c(C(=O)NC2CN(c3ncccn3)C2)cc1NC(=O)c1cnc(N)s1 [Example 125, 2-Amino-N-[4-fluoro-2-methyl-5-[(1-pyrimidin-2-ylazetidin-3-yl)carbamoyl]phenyl]-1,3-thiazole-5-carboxamide]	< 100 nM	> 1000 nM	> 1000 nM	> 1000 nM
Cc1cc(F)c(C(=O)N[C@H]2C[C@@H](C#N)C2)cc1NC(=O)c1cnc(N)s1 [Example 126, 2-Amino-N-[5-[(3-cyanocyclobutyl)carbamoyl]-4-fluoro-2-methylphenyl]-1,3-thiazole-5-carboxamide]	< 100 nM	> 1000 nM	> 1000 nM	100 to 1000 nM
Cc1cc(F)c(C(=O)N[C@H]2C[C@@H](C(N)=O)C2)cc1NC(=O)c1cnc(N)s1 [Example 127, 2-Amino-N-[5-[(3-carbamoylcyclobutyl)carbamoyl]-4-fluoro-2-methylphenyl]-1,3-thiazole-5-carboxamide]	100 to 1000 nM	> 1000 nM	> 1000 nM	> 1000 nM
Cc1cc(F)c(C(=O)Nc2ccc(OC3CC3)cc2F)cc1NC(=O)c1cnc(N)s1 [Example 128]	< 100 nM	< 100 nM	100 to 1000 nM	100 to 1000 nM
Cc1cc(F)c(C(=O)Nc2ccn(C(C)(C)C)n2)cc1NC(=O)c1cnc(N)s1 [Example 141, 2-Amino-N-[5-[(1-tert-butylpyrazol-3-yl)carbamoyl]-4-fluoro-2-methylphenyl]-1,3-thiazole-5-carboxamide]	< 100 nM	< 100 nM	100 to 1000 nM	< 100 nM
Cc1cc(F)c(C(=O)Nc2ccn(CCO)n2)cc1NC(=O)c1cnc(N)s1 [Example 144, 2-Amino-N-[4-fluoro-5-[[1-(2-hydroxyethyl)pyrazol-3-yl]carbamoyl]-2-methylphenyl]-1,3-thiazole-5-carboxamide]	< 100 nM	> 1000 nM	> 1000 nM	> 1000 nM
Cc1cc(F)c(C(=O)Nc2nc3c(s2)COCC3)cc1NC(=O)c1cnc(N)s1 [Example 145, 2-Amino-N-[5-(6,7-dihydro-4H-pyrano[4,3-d][1,3]thiazol-2-ylcarbamoyl)-4-fluoro-2-methylphenyl]-1,3-thiazole-5-carboxamide]	< 100 nM	100 to 1000 nM	100 to 1000 nM	> 1000 nM
Cc1cc(F)c(C(=O)Nc2ncc(C(C)C)s2)cc1NC(=O)c1cnc(N)s1 [Example 146, 2-Amino-N-[4-fluoro-2-methyl-5-[(5-propan-2-yl-1,3-thiazol-2-yl)carbamoyl]phenyl]-1,3-thiazole-5-carboxamide]	< 100 nM	< 100 nM	< 100 nM	< 100 nM
Cc1cc(F)c(C(=O)Nc2ccn(CC3CC3)n2)cc1NC(=O)c1cnc(N)s1 [Example 151, 2-Amino-N-[5-[[1-(cyclopropylmethyl)pyrazol-3-yl]carbamoyl]-4-fluoro-2-methylphenyl]-1,3-thiazole-5-carboxamide]	< 100 nM	< 100 nM	100 to 1000 nM	100 to 1000 nM
Cc1cc(F)c(C(=O)Nc2ccn(CC(C)(C)O)n2)cc1NC(=O)c1cnc(N)s1 [Example 153, 2-Amino-N-[4-fluoro-5-[[1-(2-hydroxy-2-methylpropyl)pyrazol-3-yl]carbamoyl]-2-methylphenyl]-1,3-thiazole-5-carboxamide]	< 100 nM	> 1000 nM	> 1000 nM	> 1000 nM
Cc1nnc(NC(=O)c2cc(NC(=O)c3cnc(N)s3)c(C)cc2F)s1 [Example 162, 2-Amino-N-[4-fluoro-2-methyl-5-[(5-methyl-1,3,4-thiadiazol-2-yl)carbamoyl]phenyl]-1,3-thiazole-5-carboxamide]	< 100 nM	> 1000 nM	100 to 1000 nM	> 1000 nM
Cc1cc(F)c(C(=O)NCCCN2CCOCC2)cc1NC(=O)c1cnc(N)s1 [Example 164, 2-Amino-N-[4-fluoro-2-methyl-5-(3-morpholin-4-ylpropylcarbamoyl)phenyl]-1,3-thiazole-5-carboxamide]	< 100 nM	> 1000 nM	> 1000 nM	> 1000 nM
Cc1cc(F)c(C(=O)NCCc2ccc(F)cc2)cc1NC(=O)c1cnc(N)s1 [Example 165]	< 100 nM	< 100 nM	100 to 1000 nM	100 to 1000 nM
Cc1cc(F)c(C(=O)Nc2ccc(OC3CC3)cn2)cc1NC(=O)c1cncs1 [Example 169, N-[5-[(5-Cyclopropyloxypyridin-2-yl)carbamoyl]-4-fluoro-2-methylphenyl]-1,3-thiazole-5-carboxamide]	< 100 nM	> 1000 nM	> 1000 nM	> 1000 nM
Cc1cc(F)c(C(=O)Nc2nc(C3CC3)cs2)cc1NC(=O)c1cnc(N)s1 [Example 170, 2-Amino-N-[5-[(4-cyclopropyl-1,3-thiazol-2-yl)carbamoyl]-4-fluoro-2-methylphenyl]-1,3-thiazole-5-carboxamide]	< 100 nM	100 to 1000 nM	100 to 1000 nM	> 1000 nM
Cc1cc(F)c(C(=O)Nc2nc(C)n(C)n2)cc1NC(=O)c1cnc(N)s1 [Example 173, 2-Amino-N-[5-[(1,5-dimethyl-1,2,4-triazol-3-yl)carbamoyl]-4-fluoro-2-methylphenyl]-1,3-thiazole-5-carboxamide]	100 to 1000 nM	> 1000 nM	> 1000 nM	> 1000 nM
Cc1cc(F)c(C(=O)Nc2ncn(C)n2)cc1NC(=O)c1cnc(N)s1 [Example 174, 2-Amino-N-[4-fluoro-2-methyl-5-[(1-methyl-1,2,4-triazol-3-yl)carbamoyl]phenyl]-1,3-thiazole-5-carboxamide]	100 to 1000 nM	> 1000 nM	> 1000 nM	> 1000 nM
